From US4820698A, “Antimicrobial agents and process for their manufacture” (The Procter & Gamble Company, priority 1986, dated 1989) come the findings set out here.

Common to all, as to format: cell-based
The test system of assay [1] is P. Aeruginosa (G-) ATCC 27853. As to the kind of experiment: In vitro antibacterial activity, standard microdilution MIC assay. Particulars: P. Aeruginosa (G-) ATCC 27853, penicillin resistant. Background: Broth dilution looks for growth in wells or tubes with falling amounts of substance.
Assay [2] relates to S. Aureus (G+) ATCC 12715. The assay is described as above. The note with it: S. Aureus (G+) ATCC 12715, penicillin resistant.
For assay [3], the system named is S. Aureus (G+) ATCC 27660. Described as above. The note with it: S. Aureus (G+) ATCC 27660, penicillin resistant.
Assay [4] concerns S. Aureus (G+) ATCC 25923. The description is as above.
The test system of assay [5] is Clostridium (G+) perfringens ATCC 3624. In words: microbe, parasite or virus in culture.
Assay [6] has as its system Klebsiella (G-) Pneumoniae ATCC. In words: In vitro antibacterial activity, standard microdilution MIC assay. The protocol: The in vitro antibacterial activity of several tetraalkyl ethenylidenebisphosphonates, fosfomycin and Penicillin G were tested against various gram-positive and gram-negative bacteria using the standard microdilution Minimum Inhibitory Concentration (MIC) assay as disclosed in Laboratory Procedures in Clinical Microbiology (John A. Washington, editor), 281-311 (1985), incorporated herein by reference.

The test system of assay [7] is Streptococcus (G+) mutans, clinical isolate (first listed). Described as above.
Assay [8] deals with gram-positive microorganisms. As to the kind of experiment: In vitro antibacterial activity (MIC), comparison with fosfomycin.
For assay [9], the system named is Streptococcus (G+) mutans, clinical isolate (third listed). As to the kind of experiment: In vitro antibacterial activity, standard microdilution MIC assay.
The test system of assay [10] is Streptococcus (G+) mutans, clinical isolate (second listed). The description is as above.
Where [11] appears, read: Pseudomonas aeruginosa, ATCC27853, read-out: MIC.
The mark [12] stands for this setting: Staphylococcus aureus, ATCC12715, read-out: MIC.
Where [13] appears, read: Staphylococcus aureus, ATCC27660, read-out: MIC.
[14] abbreviates: Staphylococcus aureus, ATCC25923, read-out: MIC.

The structures appear in SMILES notation. In brackets after ≈: the same amount, converted by molar mass. Where two headings read alike, the source gives them in different places.

`CC1(C)S[C@@H]2[C@H](NC(=O)Cc3ccccc3)C(=O)N2[C@H]1C(=O)O` [E, Penicillin G, reference compound]: the MIC in assay [1] (setting [11]) stood at 24000 µg/mL (≈ 71800 µM); in assay [2] (setting [12]) it was 19000 µg/mL (≈ 56800 µM); in assay [3] (setting [13]) it was 25000 µg/mL (≈ 74800 µM); in assay [4] (setting [14]), 25 µg/mL (≈ 74.8 µM).
`C=C(P(=O)(OCC)OCC)P(=O)(OCC)OCC` [B, Tetraethyl ethenylidenebisphosphonate]: the MIC in [5] is 52 µg/mL (≈ 173 µM); in assay [1] it was 25,000 μg/ml; in assay [2], 180 µg/mL (≈ 600 µM); in assay [3], 160 µg/mL (≈ 533 µM); in assay [4], 110 µg/mL (≈ 366 µM).
For `C=C(P(=O)(OC)OC)P(=O)(OC)OC` [A, Tetramethyl ethenylidenebisphosphonate], the MIC is 6,300 μg/ml in assay [1]; 1,200 μg/ml in assay [2]; 1,200 μg/ml in [3]; 430 µg/mL (≈ 1760 µM) in [4]; 405 µg/mL (≈ 1660 µM) in [6].
With `C[C@@H]1O[C@@H]1P(=O)(O)O` [D, Fosfomycin, reference compound], the MIC in [1] (setting [11]) is 31 µg/mL (≈ 225 µM); in [2] (setting [12]), 72 µg/mL (≈ 522 µM); in [3] (setting [13]), 180 µg/mL (≈ 1300 µM); in assay [4] (setting [14]), 56 µg/mL (≈ 406 µM).
Turning to `C=C(P(=O)(OCCCC)OCCCC)P(=O)(OCCCC)OCCCC` [C, Tetrabutyl ethenylidenebisphosphonate], the MIC in assay [5] (Clostridium, ATCC3624) was 2.1 µg/mL (≈ 5.09 µM); in assay [1] (setting [11]) it was 25000 µg/mL (≈ 60600 µM); in assay [2] (setting [12]), 6.5 µg/mL (≈ 15.8 µM); in assay [7] it was 1.2 µg/mL (≈ 2.91 µM); in [3] (setting [13]) it was 6.5 µg/mL (≈ 15.8 µM); in [4] (setting [14]) it was 4.5 µg/mL (≈ 10.9 µM). In addition, the MIC in assay [9] and in [10] was 11 µg/mL (≈ 26.7 µM) each time. For the same molecule, in assay [8], the “antibacterial efficacy against gram-positive microorganisms compared with fosfomycin” value is given as “superior to fosfomycin”.
